Tests used:
Rat whole blood (RWB) = test: LTB4 secretion assay in RWB (rat whole blood); assay type: cell-based; conditions: Rattus norvegicus
Protocol: Rat blood was drawn from caudal vena cava from male Sprague Dawley rat (6-9 weeks old) in vacuette coated with sodium heparin (Greiner bio-one, Cat #455051). The blood was pooled and diluted with RPMI (WelGENE, Cat #LM 011-05) to 1:1. The diluted blood was aliquoted into 96 well plate (200 ul per well) and compounds were added in dose response to a desired concentration ranging from 2.5 nM to 50 uM. After 15 min of pre-incubation at 37° C., calcium ionophore (A23187) was added to the final concentration of 10 uM. After 10 min of further incubation at 37° C., the LTB4 production was stopped by diluting the reaction mixture with ice cold PBS (1:4 dilutions). Cells were removed by centrifugation at 1000×g, 4° C. for 10 min, and the supernatant was transferred and then the quantification of LTB4 was done with Leukotriene B4 EIA kit (Cayman, Cat #520111) as instructed.

[1] = test system: Rat basophilic leukemia (RBL) cells; test: LTB4 secretion assay in RBL (rat basophilic leukemia cells); assay type: cell-based; conditions: Rattus norvegicus, RBL
Method in brief: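 LTB4 released into supernatant was measured by EIA after 10 min at 37 °C with arachidonic acid (2.5 uM final) and calcium ionophore A23187 (5 uM final). Before stimulation, cells plated 2×10^4/well overnight received compound doses (5 nM to 100 uM) for 15 min in 0.5% FBS medium.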

human 5-LOX = molecular target: T1, human 5-LOX (Homo sapiens, UniProt P09917); test: 5-LOX enzyme activity, fluorescence method (5-HPETE, H2DCFDA); assay type: biochemical; conditions: read-out: 5-LO (IC50)
T1 construct: purchased Cayman 60402; host or cells: insect cells (lysate)
T1 sequence (P09917 1-674): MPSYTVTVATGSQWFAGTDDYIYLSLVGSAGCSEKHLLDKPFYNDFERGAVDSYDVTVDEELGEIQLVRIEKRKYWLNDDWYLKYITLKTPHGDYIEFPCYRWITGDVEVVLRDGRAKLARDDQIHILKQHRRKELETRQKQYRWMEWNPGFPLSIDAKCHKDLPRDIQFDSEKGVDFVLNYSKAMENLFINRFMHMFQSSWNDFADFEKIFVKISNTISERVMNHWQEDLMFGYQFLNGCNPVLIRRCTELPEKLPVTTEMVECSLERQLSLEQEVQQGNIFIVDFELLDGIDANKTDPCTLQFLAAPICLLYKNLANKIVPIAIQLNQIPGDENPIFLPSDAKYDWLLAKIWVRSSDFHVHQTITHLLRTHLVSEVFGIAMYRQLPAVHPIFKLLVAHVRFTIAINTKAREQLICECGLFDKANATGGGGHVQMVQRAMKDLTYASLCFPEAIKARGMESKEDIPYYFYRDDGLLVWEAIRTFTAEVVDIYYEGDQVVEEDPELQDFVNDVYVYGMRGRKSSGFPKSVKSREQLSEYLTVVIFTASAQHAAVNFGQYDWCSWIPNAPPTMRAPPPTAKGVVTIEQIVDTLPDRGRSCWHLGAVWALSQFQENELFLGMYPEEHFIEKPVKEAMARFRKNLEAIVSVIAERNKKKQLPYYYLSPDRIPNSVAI
Method in brief: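 Fluorescence-based read-out, run entirely at room temperature. Enzyme mixture was exposed to a dose range of compound from 0.5 nM to 10 uM for 5 min before ATP and arachidonic acid were added to final levels of 100 uM and 3 uM.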

Row | Compound | EC50 (Rat whole blood (RWB)) | EC50 [1] | IC50 (human 5-LOX)
1 | Cn1c(NCc2ccc(OCc3ncco3)cc2)nc2ccc(NC3COC3)cc21 [Compound 343] | 10 to 20 µM | > 20 µM | < 1 µM
2 | Cn1c(NCCOc2ccc(OC(F)(F)F)cc2Cl)nc2ccc(N)cc21 [Compound 56] | 10 to 20 µM | < 10 µM | < 1 µM
3 | COc1cc(Oc2ccc(Cl)cn2)ccc1CNc1nc2ccc(NC3COC3)cc2n1C [Compound 328] | < 10 µM | < 10 µM | < 1 µM
4 | Cc1cc(Nc2ccc3nc(NCc4ccc(Oc5ccc(C(F)(F)F)cn5)cc4)n(C)c3c2)n[nH]1 [Compound 495] | < 10 µM | < 10 µM | < 1 µM
5 | Nc1ccc2[nH]c(NCc3ccc4ccccc4c3)nc2c1 [Compound 81] | < 10 µM | < 10 µM | < 1 µM
6 | Cc1csc(Nc2ccc3nc(NCc4ccc(Oc5ncc(Cl)cn5)cc4)n(C)c3c2)n1 [Compound 501] | < 10 µM | < 10 µM | < 1 µM
7 | Cn1c(NCc2ccc(Oc3ncc(Cl)cn3)c(Cl)c2)nc2ccc(NC3COC3)cc21 [Compound 392] | < 10 µM | < 10 µM | < 1 µM
8 | Cn1c(NCc2ccc(Oc3ccc(Cl)cn3)c(F)c2)nc2ccc(NC3COC3)cc21 [Compound 268] | < 10 µM | < 10 µM | < 1 µM
9 | CN(C)c1nc2cc(N)ccc2n1CCOc1ccc(Cl)cc1 [Compound 38] | > 20 µM | < 10 µM | < 1 µM
10 | Cc1cc(Nc2ccc3nc(NCc4ccc(Oc5ncc(Cl)cn5)c(Cl)c4)n(C)c3c2)n[nH]1 [Compound 473] | < 10 µM | < 10 µM | < 1 µM
11 | Nc1ccc2[nH]c(NCc3ccc(N4CCC(c5ccc(OC(F)(F)F)cc5)CC4)cc3)nc2c1 [Compound 108] | > 20 µM | > 20 µM | < 1 µM
12 | Cn1c(NCc2ccc(Oc3ncc(Cl)cn3)cc2)nc2ccc(Nc3cc(C(C)(C)C)[nH]n3)cc21 [Compound 469] | < 10 µM | < 10 µM | < 1 µM
13 | Cn1c(NCc2ccc(Oc3ccc4cc(F)ccc4n3)cc2)nc2ccc(NC3COC3)cc21 [Compound 383] | > 20 µM | < 10 µM | < 1 µM
14 | CNc1nc2ccc(N)cc2n1Cc1ccc(Oc2ccc(Cl)cc2)cc1 [Compound 219] | > 20 µM | < 10 µM | < 1 µM
15 | Cn1c(NCc2ccc(Oc3ncc(Cl)cc3F)cc2)nc2ccc(NC3COC3)cc21 [Compound 324] | < 10 µM | < 10 µM | < 1 µM
16 | CN(C)c1nc2ccc(NCc3ccc(C4(C#N)CCOCC4)cc3)cc2[nH]1 [Compound 241] | > 20 µM | < 10 µM | < 1 µM
17 | Cc1[nH]nc(Nc2ccc3nc(NCc4ccc(Oc5ncc(Cl)cn5)cc4)n(C)c3c2)c1C [Compound 474] | < 10 µM | < 10 µM | < 1 µM
18 | Cc1cc(CNc2nc3ccc(NC4COC4)cc3n2C)cc(C)c1Oc1ncc(Cl)cn1 [Compound 418] | > 20 µM | > 20 µM | < 1 µM
19 | Cn1ccc(Nc2ccc3nc(NCc4ccc(Oc5ncc(Cl)cn5)cc4)n(C)c3c2)n1 [Compound 414] | < 10 µM | < 10 µM | < 1 µM
20 | Cn1nc(Nc2ccc3nc(NCc4ccc(Oc5ncc(Cl)cn5)cc4)n(C)c3c2)cc1C(F)F [Compound 532] | < 10 µM | < 10 µM | < 1 µM
21 | Cn1c(NCc2ccc(Oc3ccc(F)cn3)cc2)nc2ccc(NC3COC3)cc21 [Compound 302] | 10 to 20 µM | < 10 µM | < 1 µM
22 | N#CC1(Nc2ccc3[nH]c(NCc4ccc(Oc5ccc(Cl)cc5)cc4)nc3c2)CCC1 [Compound 137] | < 10 µM | < 10 µM | < 1 µM
23 | CCC(Nc1nc2ccc(Nc3cc(C4CC4)[nH]n3)cc2n1C)c1ccc(Oc2ncc(Cl)cn2)cc1 (stereo not drawn) [Compound 530] | < 10 µM | < 10 µM | < 1 µM

Row | Compound | EC50 (Rat whole blood (RWB)) | EC50 [1] | IC50 (human 5-LOX)
24 | Cc1cc(Nc2ccc3nc(NCc4ccc(Oc5ncc(OC(F)(F)F)cn5)cc4)n(C)c3c2)n[nH]1 [Compound 482] | < 10 µM | < 10 µM | < 1 µM
25 | CNc1nc2ccc(N3CCC(Oc4ccc(OC(F)(F)F)cc4)C3)cc2[nH]1 (stereo not drawn) [Compound 104] | > 20 µM | < 10 µM | < 1 µM
26 | COCCNc1nc2ccc(N3CCC(Oc4ccc(OC(F)(F)F)cc4)C3)cc2[nH]1 (stereo not drawn) [Compound 148] | > 20 µM | < 10 µM | < 1 µM
27 | Cn1ccc(Nc2ccc3nc(NCc4ccc(Oc5ccc(Cl)cn5)cc4)n(C)c3c2)n1 [Compound 413] | < 10 µM | < 10 µM | < 1 µM
28 | Nc1ccc2nc(NC3CCCC3)n(Cc3ccc(Oc4ccc(Cl)cc4)cc3)c2c1 [Compound 161] | 10 to 20 µM | < 10 µM | < 1 µM
29 | Cn1c(NCc2ccc(Oc3cnc(Cl)cn3)cc2)nc2ccc(NC3COC3)cc21 [Compound 296] | < 10 µM | < 10 µM | < 1 µM
30 | CCC(Nc1nc2ccc(Nc3cc(C(F)F)[nH]n3)cc2n1C)c1ccc(Oc2ncc(Cl)cn2)cc1 (stereo not drawn) [Compound 535] | < 10 µM | < 10 µM | < 1 µM
31 | Cn1c(NCc2ccc(Oc3ncc(Cl)cn3)cc2)nc2ccc(Nc3cc(C(F)(F)F)[nH]n3)cc21 [Compound 475] | < 10 µM | < 10 µM | < 1 µM
32 | Nc1ccc2[nH]c(NCc3ccc(Oc4ccccc4)cc3)nc2c1 [Compound 80] | < 10 µM | < 10 µM | < 1 µM
33 | Cn1ccc(Nc2ccc3nc(NCc4ccc(Oc5ncc(Cl)cn5)cc4)n(C)c3c2F)n1 [Compound 487] | < 10 µM | < 10 µM | < 1 µM
34 | Cc1cc(Nc2ccc3nc(NCc4ccc(Oc5ncc(Cl)cn5)cc4)n(CCC(F)(F)F)c3c2)n[nH]1 [Compound 491] | < 10 µM | < 10 µM | < 1 µM
35 | CN(C)c1nc2ccc(NCc3ccc(-c4ccc(Cl)cn4)cc3)cc2[nH]1 [Compound 197] | > 20 µM | < 10 µM | < 1 µM
36 | Nc1ccc2[nH]c(NCCc3ccc(F)cc3)nc2c1 [Compound 32] | < 10 µM | < 10 µM | < 1 µM
37 | Cn1c(NCc2ccc(Oc3ccc(Cl)cn3)cc2)nc2ccc(Nc3ccccn3)cc21 [Compound 448] | < 10 µM | < 10 µM | 1 to 10 µM
38 | CCn1c(NCc2ccc(Oc3ncc(Cl)cn3)cc2)nc2ccc(Nc3n[nH]c(C)c3Cl)cc21 [Compound 512] | < 10 µM | < 10 µM | < 1 µM
39 | Cn1c(NCc2ccc(Oc3ccc(Cl)cn3)cc2Cl)nc2ccc(NC3COC3)cc21 [Compound 294] | > 20 µM | < 10 µM | < 1 µM
40 | Cn1c(NCc2ccc(Oc3cc(Cl)ncn3)cc2)nc2ccc(NC3COC3)cc21 [Compound 394] | > 20 µM | 10 to 20 µM | < 1 µM
41 | CCC(Nc1nc2ccc(NC3COC3)cc2n1C)c1ccc(Oc2ccc(Cl)cn2)cc1 (stereo not drawn) [Compound 275] | < 10 µM | < 10 µM | < 1 µM
42 | Cc1nnc(Nc2ccc3nc(NCc4ccc(Oc5ncc(Cl)cn5)cc4)n(C)c3c2)o1 [Compound 498] | < 10 µM | > 20 µM | > 10 µM
43 | CCC(Nc1nc2ccc(NC3COC3)cc2n1C)c1ccc(Oc2ccc(C(F)(F)F)cn2)cc1F (stereo not drawn) [Compound 550] | < 10 µM | < 10 µM | < 1 µM
44 | Cn1c(NCc2ccc(Oc3ccc(C(F)(F)F)cn3)cc2)nc2ccc(NC3COC3)cc21 [Compound 284] | < 10 µM | < 10 µM | < 1 µM
45 | CC(C)(C)Nc1ccc2nc(N)n(CCOc3ccc(OC(F)(F)F)cc3)c2c1 [Compound 93] | > 20 µM | < 10 µM | < 1 µM
46 | Cn1c(NCc2ccc(Oc3ncc(F)cn3)cc2)nc2ccc(NC3COC3)cc21 [Compound 337] | 10 to 20 µM | 10 to 20 µM | < 1 µM

Source: US11447486B2, “2-amino-benzimidazole derivatives and their use as 5-lipoxygenase and/or prostaglandin E synthase inhibitors” (INSTITUT PASTEUR KOREA, priority 2014, dated 2022)
